The source of these data is patent US12162893B2 (Erasca, Inc., priority 2020, dated 2024).

This test has as its target T1, mutant G12C K-RAS (Homo sapiens, UniProt P01116, G12C).
T1 construct: made in house; host or cells: E. coli BL21
Description: covalent adduct formation (CAF) with mutant G12C K-RAS. Format: binding. The conditions noted are these: for % CAF @ 10 μM,1 h: Table 6. On the procedure: Embodiments disclosed herein are further illustrated by the following examples in Tables 1-4 and the Examples hereinbelow. The Tables indicate the compound number, structure, the observed mass spectral molecular weight peak, and covalent adduct formation (CAF) with a mutant G12C K-RAS after 60 minutes at a concentration of 10 micromolar.

On to `C=CC(=O)N1C[C@H](C)N(c2nc(=O)n3c4c(c(-c5cccc6cccc(Cl)c56)ccc24)OCC3)C[C@H]1C` [Example 15, 7-((2S,5R)-4-acryloyl-2,5-dimethylpiperazin-1-yl)-10-(8-chloronaphthalen-1-yl)-2H-[1,4]oxazino[2,3,4-ij]quinazolin-5(3H)-one], for which the “% CAF (60 min)” value (Table 1, Pyrimidone Core-Morpholine Unsubstituted, after 60 minutes at 10 micromolar) amounted to 0%. For `C=CC(=O)N1C[C@H](C)N(c2nc(=O)n3c4c(c(-c5ccc(F)cc5F)c(Cl)cc24)OC[C@H]3CC2CCN(CC)CC2)C[C@H]1C` [Example 333, (3R)-7-((2S,5R)-4-acryloyl-2,5-dimethylpiperazin-1-yl)-9-chloro-10-(2,4-difluorophenyl)-3-((1-ethylpiperidin-4-yl)methyl)-2H-[1,4]oxazino[2,3,4-ij]quinazolin-5(3H)-one], the “% CAF @ 10 μM,1 h” value stood at 83.9%. As for `C=CC(=O)N1C[C@H](C)N(c2nc(=O)n3c4c(c(-c5ccc(F)cc5F)c(Cl)cc24)OC[C@H]3CCCN(C)C2COC2)C[C@H]1C` [Example 327, (3R)-7-((2S,5R)-4-acryloyl-2,5-dimethylpiperazin-1-yl)-9-chloro-10-(2,4-difluorophenyl)-3-(3-(methyl(oxetan-3-yl)amino)propyl)-2,3-dihydro-5H-[1,4]oxazino[2,3,4-ij]quinazolin-5-one], the “% CAF @ 10 μM,1 h” value is on record as 84.5%. Take `C=CC(=O)N1C[C@H](C)N(c2nc(=O)n3c4c(c(-c5ccc(F)cc5F)c(Cl)cc24)OC[C@H]3CC2(O)CCN(C)CC2)C[C@H]1C` [Example 293, (3R)-7-((2S,5R)-4-acryloyl-2,5-dimethylpiperazin-1-yl)-9-chloro-10-(2,4-difluorophenyl)-3-((4-hydroxy-1-methylpiperidin-4-yl)methyl)-2H-[1,4]oxazino[2,3,4-ij]quinazolin-5(3H)-one]: the “% CAF @ 10 μM,1 h” value amounted to 82.4%. For `C=CC(=O)N1C[C@H](C)N(c2nc(=O)n3c4c(c(-c5ccc(F)cc5F)c(Cl)cc24)OC[C@@H]3CCCN2CCN(C)CC2)C[C@H]1C` [Example 259, (3S)-7-((2S,5R)-4-acryloyl-2,5-dimethylpiperazin-1-yl)-9-chloro-10-(2,4-difluorophenyl)-3-(3-(4-methylpiperazin-1-yl)propyl)-2,3-dihydro-5H-[1,4]oxazino[2,3,4-ij]quinazolin-5-one], the “% CAF @ 10 μM,1 h” value turned out to be 90.2%. `C=CC(=O)N1C[C@H](C)N(c2nc(=O)n3c4c(c(-c5ccc(F)cc5F)c(Cl)cc24)OCC3CN2CCC(F)(F)C2)C[C@H]1C` (stereo in doubt) [Example 207, (3R)-7-((2S,5R)-4-acryloyl-2,5-dimethylpiperazin-1-yl)-9-chloro-10-(2,4-difluorophenyl)-3-((3,3-difluoropyrrolidin-1-yl)methyl)-2H-[1,4]oxazino[2,3,4-ij]quinazolin-5(3H)-one]: the “% CAF @ 10 μM,1 h” value was 85.6%.

For `C=CC(=O)N1C[C@H](C)N(c2nc(=O)n3c4c(c(-c5ccc(F)cc5F)c(Cl)cc24)OC[C@H]3CCCN2C[C@@H]3C[C@H]2CO3)C[C@H]1C` [Example 270, (3R)-3-(3-((1S,4S)-2-oxa-5-azabicyclo[2.2.1]heptan-5-yl)propyl)-7-((2S,5R)-4-acryloyl-2,5-dimethylpiperazin-1-yl)-9-chloro-10-(2,4-difluorophenyl)-2H-[1,4]oxazino[2,3,4-ij]quinazolin-5(3H)-one], the “% CAF @ 10 μM,1 h” value was determined as 96.4%.

As to `C=CC(=O)N1C[C@H](C)N(c2nc(=O)n3c4c(c(-c5ccc(F)cc5F)c(Cl)cc24)O[C@@H](CCCO)C3)C[C@H]1C` [Example 247, (2S)-7-((2S,5R)-4-acryloyl-2,5-dimethylpiperazin-1-yl)-9-chloro-10-(2,4-difluorophenyl)-2-(3-hydroxypropyl)-2,3-dihydro-5H-[1,4]oxazino[2,3,4-ij]quinazolin-5-one], the “% CAF @ 10 μM,1 h” value is listed as 42.2%.

Turning to `C=CC(=O)N1C[C@H](C)N(c2nc(=O)n3c4c(c(-c5ccc(F)cc5F)c(Cl)cc24)OC[C@H]3CN(C(=O)[C@@H]2CCCN2C)C2CC2)C[C@H]1C` [Example 307, (2S)-N-(((3R)-7-((2S,5R)-4-acryloyl-2,5-dimethylpiperazin-1-yl)-9-chloro-10-(2,4-difluorophenyl)-5-oxo-3,5-dihydro-2H-[1,4]oxazino[2,3,4-ij]quinazolin-3-yl)methyl)-N-cyclopropyl-1-methylpyrrolidine-2-carboxamide], the “% CAF @ 10 μM,1 h” value is 51.1%. On the same count and under the same terms, for `C=CC(=O)N1C[C@H](C)N(c2nc(=O)n3c4c(c(-c5c(C)ccc6cnn(C)c56)ccc24)OCC3)C[C@H]1C` [Example 194, 7-((2S,5R)-4-acryloyl-2,5-dimethylpiperazin-1-yl)-10-(1,6-dimethyl-1H-indazol-7-yl)-2,3-dihydro-5H-[1,4]oxazino[2,3,4-ij]quinazolin-5-one] the value was 2.5%.

Regarding `C=CC(=O)N1C[C@H](C)N(c2nc(=O)n3c4c(c(-c5c(F)cccc5C(F)F)ccc24)OCC3)C[C@H]1C` [Example 200, 7-((2S,5R)-4-acryloyl-2,5-dimethylpiperazin-l-yl)-10-(2-(difluoromethyl)-6-fluorophenyl)-2,3-dihydro-5H-1,4|oxazino[2,3,4-ij]quinazolin-5-one], the “% CAF @ 10 μM,1 h” value turned out to be 0%. In the case of `C=CC(=O)N1CCN(c2nc(=O)n3c4c(c(-c5c(O)cccc5F)c(Cl)cc24)OC[C@H]3CN2CCOCC2)[C@@H](C)C1` [Example 198, (3R,10S)-7-((S)-4-acryloyl-2-methylpiperazin-1-yl)-9-chloro-10-(2-fluoro-6-hydroxyphenyl)-3-(morpholinomethyl)-2,3-dihydro-5H-[1,4]oxazino[2,3,4-ij]quinazolin-5-one], the “% CAF @ 10 μM,1 h” value came to 100%. As to `C=CC(=O)N1C[C@H](C)N(c2nc(=O)n3c4c(c(-c5ccc(F)cc5F)c(Cl)cc24)OC[C@H]3CN(C)CC(F)(F)F)C[C@H]1C` [Example 235, (3R)-7-((2S,5R)-4-acryloyl-2,5-dimethylpiperazin-1-yl)-9-chloro-10-(2,4-difluorophenyl)-3-((methyl(2,2,2-trifluoroethyl)amino)methyl)-2H-[1,4]oxazino[2,3,4-ij]quinazolin-5(3H)-one], the “% CAF @ 10 μM,1 h” value turned out to be 44.5%.

`C=CC(=O)N1C[C@H](C)N(c2nc(=O)n3c4c(c(-c5c(O)cccc5F)c(Cl)cc24)OC[C@H]3CN(C)CC(F)(F)F)C[C@H]1C` (atropisomer, axis not shown) [Example 242, (3R,10S)-7-((2S,5R)-4-acryloyl-2,5-dimethylpiperazin-1-yl)-9-chloro-10-(2-fluoro-6-hydroxyphenyl)-3-((methyl(2,2,2-trifluoroethyl)amino)methyl)-2H-[1,4]oxazino[2,3,4-ij]quinazolin-5(3H)-one]: the “% CAF @ 10 μM,1 h” value amounted to 63.1%.

In the case of `C=CC(=O)N1C[C@H](C)N(c2nc(=O)n3c4c(c(-c5ccc(F)cc5F)c(Cl)cc24)OC[C@H]3CN2CCC2)C[C@H]1C` [Example 233, (3R)-7-((2S,5R)-4-acryloyl-2,5-dimethylpiperazin-1-yl)-3-(azetidin-1-ylmethyl)-9-chloro-10-(2,4-difluorophenyl)-2H-[1,4]oxazino[2,3,4-ij]quinazolin-5(3H)-one], the “% CAF @ 10 μM,1 h” value is on record as 76%. The same measure, in the same setting: as for `C=CC(=O)N1C[C@H](C)N(c2nc(=O)n3c4c(c(-c5cc(Cl)ccc5F)c(Cl)cc24)OC[C@@H]3CN2CCOCC2)C[C@H]1C` [Example 211, (3S)-7-((2S,5R)-4-acryloyl-2,5-dimethylpiperazin-1-yl)-9-chloro-10-(5-chloro-2-fluorophenyl)-3-(morpholinomethyl)-2,3-dihydro-5H-[1,4]oxazino[2,3,4-ij]quinazolin-5-one], the figure is 77.4%.
